Legend:
cellules de type Jurkat = assay: Apoptosis test on Jurkat cells, apoptosis induced by sodium arsenate, quantified by flow cytometry (propidium iodide); assay type: cell-based, humaine; details: apoptosis induced by 5 µM arséniate de sodium
Method: Les tests apoptotiques ont été réalisés sur des cellules de type Jurkat. La lignée cellulaire Jurkat (Clone E6-1, ATCC TIB 152), dérivée de cellule T humaine de leucémie aiguë, a été décrite dans la littérature (Weiss A. et al, Journal of Immunology, 1984, 133, 123). Les cellules ont été incubées dans un milieu de culture en présence 1 µL d'arséniate de sodium. La concentration finale en arséniate de sodium dans le milieu de culture est de 5 µM. Afin de tester l'inhibition de l'apoptose induite par l'arséniate de sodium, les cellules ont été cultivées soit en absence (témoin) soit en présence de vulgarine 2,6 µM ou d'un de ses dérivés.
L'apoptose a été quantifiée par cytometrie en flux. Les cellules sont rendues perméables et leurs noyaux sont teintés avec de l'iodure de propidium en présence de ribonucléase. Un minimum de 3000 cellules ont été analysées afin de quantifier l'apoptose cellulaire (Hotz M.A. et al, Cytometry, 1994, 15, 237).

[1] = tested on: PBMCs (lymphocytes et monocytes) ou du sang total; assay: Cell viability test (XTT, mitochondrial dehydrogenase); details: relative to control of activated cells
Method: (§1) Les tests ont été réalisés sur des PBMCs (lymphocytes et monocytes) ou du sang total de donneurs sains humains. Tous les prélèvements ont été réalisés au Service d'Hépato-Gastroentérologie et d'Assistance Nutritive des Hôpitaux Universitaires de Strasbourg (Hôpital de Hautepierre), après approbation du protocole d'étude concernant les effets du célastrol par le CCPPRB n°1 d'Alsace.
(§2) Chez des volontaires sains, 20 ml de sang veineux périphérique sont prélevés le matin à jeun sur héparine. Le sang est ensuite dilué au demi dans de la solution saline équilibrée de Hank's dépourvue en Ca^2+ et en Mg^2+ (HBSS-CMF, Gibco BRL, Cergy, France) additionnée de 100 UI/ml de streptomycine (Biochrom KG, Berlin, Allemagne) et de 100 UI/ml de pénicilline (Biochrom KG). Les PBMCs (lymphocytes et monocytes) sont alors séparées par centrifugation sur Ficoll-Histopaque de densité 1,076 (Sigma, L'Isle d'Abeau-Chesnes, France) (30 min à 400 g) puis, après deux lavages dans du HBSS-CMF additionné d'antibiotiques (10 min à 250 g), resuspendues dans du milieu RPMI 1640 (Gibco BRL) additionné de 10 % (volume/volume) de sérum foetal de veau (SFV) inactivé à la chaleur (56°C, 30 min, Gibco BRL) et d'antibiotiques. Après comptage à la cellule de Malassez, les cellules sont incubées à raison de 2 x 10^5 cellules/puits de 1 ml dans des plaques de 24 puits (Corning Inc., New York, USA) à 37°C dans un incubateur humidifié (air 95 % - CO2 5 %), en présence ou en absence des molécules étudiées préparées dans du DMSO (diméthyl sulfoxyde, Sigma ; maximum : 1 % (v/v) par puit), avec ou sans activation par du lipopolysaccharide de Salmonella abortus equi (LPS, 5 µg/ml) (Sigma) et de la phytohémagglutinine (PHA, 1 µg/ml) (Sigma) ajoutés à T0. Après 24 heures d'incubation, les plaques sont centrifugées (15 min à 200 g), et les surnageants prélevés puis congelés à -80°C jusqu'au dosage.
(§3) La technique est basée sur le clivage par la déshydrogénase mitochondriale d'un sel de tétrazolium de couleur jaune en formazan de couleur orange. Les culots cellulaires (PBMCs et sang total) contenus dans les plaques de culture sont resuspendus dans du RPMI 1640 additionné d'hydroxide 2,3-bis-(2-méthoxy-4-nitro-5-sulfophényl)-5-[(phénylamino)carbonyl]-2H-tétrazolium (XTT, 1 mg/ml, Sigma), et de méthosulfate de phénazine (1,25 mM, Sigma), catalyseur de la réaction. Les plaques sont incubées 4 à 24 heures, puis lues en absorbance à 450 nm (filtre de référence : 620 nm). La viabilité cellulaire est estimée par rapport au témoin de cellules activées.

in vitro = details: human, pbmcs or whole blood
Method: as §1, §2, §3

Compound	pourcentage d'inhibition de l'apoptose (cellules de type Jurkat; 2,6 µM)	Pourcentage de viabilité cellulaire ([1]; Concentration 0,01 µM, 0.01 µM)	Pourcentage de viabilité cellulaire ([1]; Concentration 0,1 µM, 0.1 µM)	Pourcentage de viabilité cellulaire ([1]; Concentration 1 µM)	Pourcentage de viabilité cellulaire ([1]; Concentration 10 µM)	Pourcentage de viabilité cellulaire ([1]; Concentration 30 µM)	viability at 0.01 µM (in vitro)	viability at 0.1 µM (in vitro)	viability at 1 µM (in vitro)	viability at 10 µM (in vitro)	viability at 30 µM (in vitro)	inhibition at 2.6 µM (cellules de type Jurkat; Homo sapiens, 2,6 µM, read-out: pourcentage d'inhibition de l'apoptose)
4-épivulgarine	~100%	105%	103%	99%	103%	100%						
CC1C(=O)OC2C1CCC1(C)C(=O)CCC(C)(O)C21 (centres unmarked) [2,3-dihydrovulgarine]							110%	104%	105%	108%	105%	
CC1C(=O)OC2C1CCC1(C)C(=O)C=CC(C)(O)C21 (centres unmarked) [Vulgarine, vulgarine]							112%	102%	119%	104%	102%	~100%

Reference: patent publication EP1675557B1, “COMPOSITION COMPRISING A SESQUITERPENE LACTONE” (Greenpharma, priority 2003, dated 2005)
